Values quoted from earlier work as cited in patent publication US20240189475A1 (PUKYONG NATIONAL UNIVERSITY INDUSTRY-UNIVERSITY COOPERATION …, priority 2022, published 2024).

Details: background statement

For `CC(=O)c1c(O)c(C)c(O)c2c1OC1=CC(=O)C(C(C)=O)C(=O)C12C` (stereo not shown) [UA, usnic acid], the solubility in water is given as “low solubility in water”.
